Reference: EP0306160A2, “Molluscicides” (BRITISH TECHNOLOGY GROUP LIMITED, priority 1987, dated 1989)
Read-outs that look alike come from different tables or passages of the source.

Key:
Type in all cases: in vivo
Deroceras reticulatum = test: Bait bioassay with increasing concentrations in standard bait (Examples 19-35); conditions: for Kill: 4 days
Experimental: Test compounds were incorporated into a standard wheat-flour-based edible carrier containing 10% paraffin wax binder and 2.5% sucrose phagostimulant, in increasing concentrations 0, 1, 4, 7, 10, 13 and 16% a.i.
Groups of ten field-collected D. reticulatum in the weight range 400-600 mg were confined with 0.5 g DM test bait at each concentration for a period of 4 days under a regime of 12 h dark @ 5°C and 12 light @ 15°C. Weight of bait eaten and number of slugs killed were recorded. Each group of compounds was tested against a concurrently run Al(ac.ac)₃ standard bait.
In Examples 23 to 35, where six groups of ten slugs are offered bait containing 1,4,7,10,13 or 16% a.i., have been reduced to two values, (i), the total amount of a.i. ingested (mg) which gives an indication of the palatability of the compound, and (ii), the total number of slugs killed (x/60) which, with (i), gives an indication of its relative toxicity.

slugs [1] = test: Laboratory test, standard baits containing 1% metal ion, no alternative food (Example 17); conditions: 3 replicates of 10 slugs; standard bait containing 1% metal ion
Experimental: (§1) All laboratory tests were made with field-collected grey field slugs, Deroceras reticulatum (Pulmonata, Limacidae) and also with Arion hortensis in the weight range 0.4-0.6g. They were held in polythene bowls on wet filter paper in a controlled environment cabinet cycling 12 hours light at 15°C and 12 hours dark at 5°C. Voluntary feeding tests were made under these conditions but all other laboratory bioassays were carried out at 10°C constant temperature with an overnight pre-treatment period also at 10°C.
Laboratory tests where 3 replicates of 10 slugs were confined with standard baits containing 1% metal ion in different compounds, and no alternative food supplied, gave the following results: Aluminium sulphate (Al₂(SO₄)₃): 0/10, 0/10, 0/10 killed Aluminium acetylacetonate: 10/10, 10/10, 10/10 killed (Ex 17)

[2] = system: grey field slugs, Deroceras reticulatum; test: Stomach poison action, voluntary feeding (wheatmeal bait)
Experimental: as §1
Test chemicals were offered to slugs at a range of concentrations in a wheat-meal based formulation, groups of ten slugs being confined in 15 cm crystallising dishes containing only wet filter paper and a solid watch glass filled with 3 g (dry weight) of test bait for four 24-hour cycles […]

[3] = system: grey field slugs, Deroceras reticulatum; test: Contact with coated glass plate; conditions: for LC₅₀ On glass (50 min)., Mean: mean of all tests
Experimental: as §1
Groups of ten slugs were placed foot-down on sheets of glass, 10 cm x 10 cm, previously coated with an aqueous solution of suspension of test chemical and air dried to leave a deposit of known weight per unit area. Slugs were confined to a treated area for a period of 50 minutes at 10°C on plates with increasing surface loadings, then removed and held in wet filter paper-floored petri dishes with food. The number of dead slugs after seven days was recorded and the values used to calculate median lethal surface concentrations ('LC₅₀') for each compound by probit analysis.

[4] = system: grey field slugs, Deroceras reticulatum; test: Contact with treated soil surface; conditions: mean of all tests
Experimental: as §1
Groups of ten slugs were held in plastic seed trays, 20 x 34 cm x 5 cm deep, filled to a depth of 1 cm with standard soil, a sandy clay loam from Rothamsted Farm, with a pH in water of 5.2, previously oven-dried, sieved (2 mm mesh), and rewetted to field capacity in the trays. Test chemicals were mixed with 5g dry soil, ground together and sprinkled on to the wet soil surface. Slugs were confined to the treated surface by a 16 v pulsed DC electric fence attached to the tray sides. Trays were covered to maintain a high Relative Humidity and food was provided. Dead slugs were removed daily and the final mortality count made after 10 days.

slugs [5] = test: Field comparison of baits (grass/clover), Table VII; conditions: first 4 days of trial; bait 10 % ai, 2.5 % sucrose (PP pellets 6 % ai, Draza pellets 4 % ai)
Excerpt: In Table VII there is presented a comparison of the efficacy of present iron and aluminium chelates with metaldehyde and methiocarb under field conditions (grass/clover).

CC(=O)C=C(C)[O][Al]([O]C(C)=CC(C)=O)[O]C(C)=CC(C)=O [Example 19, Tris (2,4-pentanedionato) Al III]
Kill (Deroceras reticulatum; 1 % a.i. in standard bait): 0 x/10 | Kill (Deroceras reticulatum; 4 % a.i. in standard bait): 0 x/10 | Kill (Deroceras reticulatum; 7 % a.i. in standard bait): 6 x/10 | Kill (Deroceras reticulatum; 10 % a.i. in standard bait): 7 x/10 | Kill (Deroceras reticulatum; 13 % a.i. in standard bait): 8 x/10 | Kill (Deroceras reticulatum; 16 % a.i. in standard bait): 8 x/10 | killed (slugs [1]): 10/10 | mortality at 0.01 % ([2]; Deroceras reticulatum, po, 168 h, 0.01 % Al in wheatmeal bait, read-out: Mortality after 7 days): 10% | mortality at 0.03 % ([2]; Deroceras reticulatum, po, 168 h, 0.03 % Al in wheatmeal bait, read-out: Mortality after 7 days): 10% | mortality at 0.1 % ([2]; Deroceras reticulatum, po, 168 h, 0.1 % Al in wheatmeal bait, read-out: Mortality after 7 days): 20% | mortality at 0.3 % ([2]; Deroceras reticulatum, po, 168 h, 0.3 % Al in wheatmeal bait, read-out: Mortality after 7 days): 40% | mortality at 1 % ([2]; Deroceras reticulatum, po, 168 h, 1.0 % Al in wheatmeal bait, read-out: Mortality after 7 days): 100% | mortality at 3 % ([2]; Deroceras reticulatum, po, 168 h, 3.0 % Al in wheatmeal bait, read-out: Mortality after 7 days): 100% | mortality at 0.1 % ([2]; Deroceras reticulatum, po, 216 h, 0.1 % Metal in wheatmeal bait (Table III), read-out: Mortality after 9 days): 40% | mortality at 0.5 % ([2]; Deroceras reticulatum, po, 216 h, 0.5 % Metal in wheatmeal bait (Table III), read-out: Mortality after 9 days): 80% | mortality at 1 % ([2]; Deroceras reticulatum, po, 216 h, 1.0 % Metal in wheatmeal bait (Table III), read-out: Mortality after 9 days): 80% | mortality at 5 % ([2]; Deroceras reticulatum, po, 216 h, 5.0 % Metal in wheatmeal bait (Table III), read-out: Mortality after 9 days): 80% | mortality at 10 % ([2]; Deroceras reticulatum, po, 216 h, 10.0 % Metal in wheatmeal bait (Table III), read-out: Mortality after 9 days): 80% | mortality at 1 % ([2]; Deroceras reticulatum, po, at 1 per cent Aluminium content, non-choice test (Table II), read-out: mortality): 100% | LC₅₀ On glass (50 min). ([3]; individual tests, 50 min contact at 10°C, dead after seven days, bracketed values estimated, listed as Al^III acetylacetonate): (10-100)(Example 1) µg metal cm² | LC₅₀ On glass (50 min)., Mean [3]: (< 100) µg metal cm² | LC₅₀ On soil (10 days), Mean [4]: 34.1 µg metal/cm²

CCC(=O)C=C(C)[O][Al]([O]C(C)=CC(=O)CC)[O]C(C)=CC(=O)CC [Example 20, Tris (2,4-hexanedionato) Al III]
Kill (Deroceras reticulatum; 1 % a.i. in standard bait): 1 x/10 | Kill (Deroceras reticulatum; 4 % a.i. in standard bait): 0 x/10 | Kill (Deroceras reticulatum; 7 % a.i. in standard bait): 4 x/10 | Kill (Deroceras reticulatum; 10 % a.i. in standard bait): 1 x/10 | Kill (Deroceras reticulatum; 13 % a.i. in standard bait): 5 x/10 | Kill (Deroceras reticulatum; 16 % a.i. in standard bait): 5 x/10

CCC(=O)C=C(CC)[O][Al]([O]C(=CC(=O)CC)CC)[O]C(=CC(=O)CC)CC [Example 21, Tris (3,5-heptanedionato) Al III]
Kill (Deroceras reticulatum; 1 % a.i. in standard bait): 1 x/10 | Kill (Deroceras reticulatum; 4 % a.i. in standard bait): 3 x/10 | Kill (Deroceras reticulatum; 7 % a.i. in standard bait): 0 x/10 | Kill (Deroceras reticulatum; 10 % a.i. in standard bait): 1 x/10 | Kill (Deroceras reticulatum; 13 % a.i. in standard bait): 1 x/10 | Kill (Deroceras reticulatum; 16 % a.i. in standard bait): 2 x/10

CC1OC(C)OC(C)OC(C)O1 (centres unmarked) [Metaldehyde]
Total Slugs 'Dead' or 'Immobilised' (Cumulative) Total D+I (slugs [5]): 461

CNC(=O)Oc1cc(C)c(SC)c(C)c1 [Methiocarb]
Total Slugs 'Dead' or 'Immobilised' (Cumulative) Total D+I (slugs [5]): 557

Aluminium sulphate [reference compound]
killed (slugs [1]): 0/10 | Mortality after 7 days ([2]; 0.01 % Al in wheatmeal bait): 1 x/10 | Mortality after 7 days ([2]; 0.03 % Al in wheatmeal bait): 2 x/10 | Mortality after 7 days ([2]; 0.1 % Al in wheatmeal bait): 3 x/10 | Mortality after 7 days ([2]; 0.3 % Al in wheatmeal bait): 3 x/10 | Mortality after 7 days ([2]; 1.0 % Al in wheatmeal bait): 5 x/10 | Mortality after 7 days ([2]; 3.0 % Al in wheatmeal bait): 2 x/10 | LC₅₀ values on glass [3]: around 20 µg metal cm⁻² | LC₅₀ On glass (50 min)., Mean [3]: 20.9 µg metal cm⁻² | LC₅₀ On soil (10 days), Mean [4]: 207.4 µg metal/cm²

Tris (1-dimethoxy-2, 4-pentanedionato) Al III [Example 29]
Slugs dead (Deroceras reticulatum; total over six groups of ten slugs offered bait containing 1,4,7,10,13 or 16% a.i.): 14 x/10
